From paper PMC10236072, “Microwave-assisted synthesis of [^52Mn]Mn-porphyrins: Applications in cell and liposome radiolabelling” (Nuclear Medicine and Biology, 2022)
Read-outs that look alike come from different tables or passages of the source.

Columns and labels:
[1] = design: method as in PMID 3821476; settings: up to 9 days, UV-spectroscopy; cited from earlier work
[2] = Log P (1-octanol/water partition, gamma counting); assay type: physicochemical; settings: 1-octanol/H2O, mean ± SD, n = 3 (free 52Mn n = 2)
Experimental: An aliquot (500 μL) of each layer was then added to an Eppendorf. An aliquot (20 μL) of the [^52Mn]Mn-porphyrin reaction mixture was then added to the two layers and vortexed for 5 min. After mixing, the suspension was […] briefly for 10 s to settle the layers, and 200 μL of each layer was extracted. The octanol and H2O layers were then gamma counted (Wallac CompuGamma) and the Log P was calculated as below: LogP=LogActivityCPMin octanol layer/ActivityCPMinwaterlayer

various cell lines = settings: cited from earlier work
[3] = Solubility in aqueous and organic solvents; assay type: physicochemical

For `O=S(=O)([O-])c1ccc(-c2c3nc(c(-c4ccc(S(=O)(=O)[O-])cc4)c4ccc([n-]4)c(-c4ccc(S(=O)(=O)[O-])cc4)c4ccc([n-]4)c(-c4ccc(S(=O)(=O)[O-])cc4)c4nc2C=C4)C=C3)cc1.[Mn+3]` [Mn-(5)], the “stability in human plasma” value [1] is given as “stable”.
With `[Cl][52Mn][Cl]` [Buffered ^52Mn, [^52Mn]MnCl2] the “Log P value” [2] was −2.4 ± 0.7.
For `[89Zr+4].[O-]c1cccc2cccnc12.[O-]c1cccc2cccnc12.[O-]c1cccc2cccnc12.[O-]c1cccc2cccnc12` [[^89Zr]Zr-oxine], the cellular retention (various cell lines; later timepoints (5–7 days)) is given as “at least 30%” and the cellular retention (various cell lines; various cell lines, after 24 h) is given as > 65%.
For `CNS(=O)(=O)c1ccc(F)c(-c2c3nc(c(-c4c(F)ccc(S(=O)(=O)NC)c4F)c4ccc([nH]4)c(-c4c(F)ccc(S(=O)(=O)NC)c4F)c4nc(c(-c5c(F)ccc(S(=O)(=O)NC)c5F)c5ccc2[nH]5)C=C4)C=C3)c1F` [porphyrin 2], the solubility [3] was “favourable solubility in aqueous and organic solvents” and the solubility ([3]; listed as Porphyrin 2) was “favourable solubility in both aqueous and organic solvents”.
